Series [1] in a line: Spontaneous release of nitric oxide, titrated as nitrites+nitrates (Griess reagent, nitrate reductase). The note with it: nitrites+nitrates released; test product 150 μM, 4 hours at 37° C., pH 7.5 PBS buffer; compounds of formula I. As to the method: A solution of a compound of the formula I of the invention spontaneously releases nitric oxide. The nitrite ions resulting therefrom are titrated by colorimetry by means of a specific reagent (Griess). To take account of any release of nitrate ions in addition to the nitrites, bacterial nitrate reductase is added to the reaction medium to reduce the nitrate ions formed.
The reactions and measurements are carried out in transparent 96-well plates. The test products are dissolved at the time of use, at a concentration of 3 mM in dimethyl sulfoxide. 95 μl of a reagent containing nitrate reductase (0.18 U/ml in 100 mM pH 7.5 PBS buffer, 210 μM β-NADPH, 5 μM FAD) and 5 μl of the solution of the test product (final concentration of 150 μM) are then added to each well. After stirring, the mixtures are incubated for 4 hours at 37° C. The reaction is then stopped by adding 100 μl of Griess' reagent (Sigma G4410). The resulting mixture is stirred for 5 min at room temperature, and the optical density is then read at 540 nm. This value is proportional to the concentration of nitrites+nitrates in the medium. A calibration range is made for each plate, using NaNO2.
The results are expressed as μmol/l (μM) of nitrites+nitrates released in Table A for some of the compounds of the formula I given as examples below.
In general terms: The Griess reaction detects nitrite, a stable product of nitric oxide.

Another series relates to Human LDLs. Description: Oxidation of human LDL by cupric ions (fluorescence), antioxidant effect. The series is classed as biochemical. On the procedure: Human LDLs placed in aqueous solution in the presence of cupric ions, become spontaneously oxidised on their protein component, apolipoprotein-B. This oxidation makes the particle fluorescent, which is exploited to measure a pharmacological effect.
The reactions and measurements are carried out in black 96-well plates. 10 μl of a solution of the test product dissolved in dimethyl sulfoxide are first mixed with 170 μl of a solution of human LDL at a concentration of 120 μg/ml and 20 μl of 100 μM CuCl2. After stirring, the mixture is incubated for 2 hours at 37° C., and a first fluorescence reading is taken (excitation at 360 nm, reading at 460 nm). The mixture is then incubated for a further 22 hours, to take a second reading under the same conditions. The difference is proportionately smaller the greater the antioxidant power of the test product. Probucol is used as reference product at a concentration of 10 μM.
The concentrations that inhibit 50% (IC50) of the oxidation are prepared from three concentrations of the test product. They are given in Table B below for some of the compounds of the formula I given as examples below.

The mark [2] stands for this setting: human LDL + CuCl2, fluorescence 2 h vs 24 h at 37° C., compounds of formula I (Table B).
The mark [3] stands for this setting: oxidation of human lipoproteins, compounds of formula II (Table C).

Drawing on US20050154232A1, “Nitrosodiphenylamine derivatives and their pharmaceutical use against oxidative stress pathologies” (priority 2002, published 2005), this text covers Nitrites-Nitrates, IC50 and melting point for 15 molecules.

The term pIC50 denotes the IC50 on a negative log10 scale, so that one unit is a factor of ten. By melting point is commonly meant the temperature, or range, at which the solid turns liquid.

pIC50: −log10 of the molar value.

For the molecule `COc1ccc(N(N=O)c2cccc(C(=O)Nc3cccnc3)c2)cc1` [Example 4b, 3-[1-(4-Methoxyphenyl)-2-oxohydrazino]-N-pyrid-3-ylbenzamide], in series [1], the Nitrites-Nitrates was 70 µM. In the series with Human LDLs (setting [2]), the pIC50 was 4.90. Consider `COc1ccc(Nc2cccc(C(=O)NCc3cccnc3)c2)cc1` [Example 132a], for which the pIC50 in the series on Human LDLs (setting [3]) is 5.11. For `COc1ccc(Nc2cccc(C(=O)Nc3ccccn3)c2)cc1` [Example 134a], the pIC50 with Human LDLs (setting [3]) was 5.35.

Molecule `COc1ccc(Nc2cccc(C(=O)Nc3ccncc3)c2)cc1` [Example 135a] showed a negative logarithm of the IC50 (pIC50) in the series on Human LDLs (setting [3]) of 5.12.

Regarding `COc1ccc(N(N=O)c2cccc(C(=O)Nc3ccncc3)c2)cc1` [Example 135b], in series [1], the Nitrites-Nitrates came out at 75 µM. Also, the pIC50 in the series on Human LDLs (setting [2]) is 5.07. Turning to `COc1ccc(N(N=O)c2ccc(C(=O)Nc3ccncc3)cc2)cc1` [Example 15b], in series [1], the Nitrites-Nitrates amounted to 82 µM. In addition, the pIC50 in the series with Human LDLs (setting [2]) is 5.32. The molecule `COc1ccc(N(N=O)c2ccc(C(=O)Nc3cccnc3)cc2)cc1` [Example 1b, 4-[1-(4-Methoxyphenyl)-2-oxohydrazino]-N-pyrid-3-ylbenzamide] came in with a melting point of 167 to 169 °C. For the same molecule, the Nitrites-Nitrates in series [1] was determined as 63 µM. For the same molecule, the pIC50 in the series on Human LDLs (setting [2]) was 5.34.

In turn, `COc1ccc(Nc2ccc(S(=O)(=O)Nc3cccnc3)cc2)cc1` [Example 136a] had a pIC50 in the series with Human LDLs (setting [3]) of 4.70. `COc1ccc(Nc2ccc(C(=O)Nc3cccc([N+](=O)[O-])c3)cc2)cc1` [Example 8a]: the pIC50 with Human LDLs (setting [3]) is 5.00. As for `COc1ccc(N(N=O)c2cccc(C(=O)NCc3cccnc3)c2)cc1` [Example 132b], the Nitrites-Nitrates in series [1] amounted to 82 µM. Further, in the series on Human LDLs (setting [2]), the pIC50 is 5.03. With `O=NN(c1ccc(C(=O)Nc2cccnc2)cc1)c1ccc([N+](=O)[O-])cc1` [Example 5b, 4-[1-(4-Nitrophenyl)-2-oxohydrazino]-N-pyrid-3-ylbenzamide], in series [1], the Nitrites-Nitrates came out at 47 µM. As to `COc1ccc(N(N=O)c2ccc(C(=O)NCCN3CCN(C)CC3)cc2)cc1` [Example 6b, 4-[1-(4-Methoxyphenyl)-2-oxohydrazino]-N-[2-(4-methylpiperazin-1-yl)-ethyl]benzamide], the Nitrites-Nitrates in series [1] was found to be 58 µM. Molecule `COc1ccc(Nc2cccc(C(=O)Nc3cccnc3)c2)cc1` [Example 4a, 3-[(4-Methoxyphenyl)amino]-N-pyrid-3-ylbenzamide] gave a pIC50 in the series on Human LDLs (setting [3]) of 5.04.

For `COc1ccc(N(N=O)c2ccc(C(=O)Nc3ccccn3)cc2)cc1` [Example 14b, 4-[1-(4-methoxyphenyl)-2-oxohydrazino]-N-pyrid-2-ylbenzamide], in series [1], the Nitrites-Nitrates was 90 µM. Regarding `COc1ccc(Nc2ccc(C(=O)Nc3ccccc3)cc2)cc1` [Example 33a], the pIC50 in the series on Human LDLs (setting [3]) is 4.89.
